These results are taken from article PMC7954990 (European journal of medicinal chemistry, 2021).

What is called IC50 is the midpoint of a concentration-inhibition curve. For orientation: Kd means the constant that tells how readily two partners part at equilibrium. Read a low Kd as a tighter complex.

SMILES strings stand for the structures.

Data set [1] concerns the target T1, CDK2/cyclin A (Homo sapiens, UniProt P24941). As to the kind of experiment: CDK2/cyclin A enzyme assay. As to conditions: Tables 1 and 2. The format is biochemical.
In data set [2] the target is T1, CDK2/cyclin A. As to the kind of experiment: Reaction Biology 33P-ATP filter-binding kinase assay, CDK2/cyclin A. The format is biochemical.
Data set [3] deals with CDK2 (Homo sapiens, UniProt P24941). As to the kind of experiment: DiscoverX kinase binding assay for Kd. As to conditions: for better binding affinity for CDK2 compared to screening hit 3: relative to 3.
The test system of data set [4] is MCF-7 cell line. As to the kind of experiment: Antiproliferation assay. The class given is cell-based. Particulars: 72 h, alamarBlue, highest concentration tested.
Data set [5] deals with CDK2/cyclin E (Homo sapiens, UniProt P24941). Description: Reaction Biology 33P-ATP filter-binding kinase assay, CDK2/cyclin E. The format is biochemical.
Data set [6] relates to MDCK cell line. As to the kind of experiment: MDCK cell permeability assay. The format is in vitro ADME. As to conditions: 1 μM, 2 h; for Papp (A-B) (10^−6, cm/s): apical to basolateral; for Papp (B-A) (10^−6, cm/s): basolateral to apical.
The subject of data set [7] is HSP90. Description: Test against HSP90. Particulars: data not shown.
Data set [8] relates to CDK complexes. As to the kind of experiment: Reaction Biology single-dose kinase profiling of CDK complexes. The class given is biochemical. As to conditions: all tested CDK complexes.

With `Cc1nn(-c2ccccn2)c2c1C(=O)CC(c1ccccc1)C2Br` (stereo not shown) [Compound 18d, 7-Bromo-3-methyl-6-phenyl-1-(pyridin-2-yl)-6,7-dihydro-1H-indazol-4(5H)-one], the “CDK2/cyclin A inhibitory activity, in words” value in data set [1] was “inactive”.
Compound `Cc1nn(-c2ccncn2)c2c1C(=O)CC(C)(C)C2Br` (stereo not shown) [Compound 59, 7-Bromo-3,6,6-trimethyl-1-(pyrimidin-4-yl)-6,7-dihydro-1H-indazol-4(5H)-one] gave a half-inhibitory concentration (IC50) in data set [2] of 120 nM. Besides, in data set [3], the “better binding affinity for CDK2 compared to screening hit 3” value amounted to 3 fold. In data set [4], the “antiproliferative activities against MCF-7 cell line, none up to” value (“antiproliferative activities” below) was above 200 µM.
With `Cc1nn(-c2ccccn2)c2c1C(O)CC(C)(C)C2Br` (stereo not shown) [Compound 22, 7-Bromo-3,6,6-trimethyl-1-(pyridin-2-yl)-4,5,6,7-tetrahydro-1H-indazol-4-ol], the “CDK2/cyclin A inhibitory activity, in words” value in data set [1] is “weak inhibitory activity”.
Take `Cc1nn(-c2ccccn2)c2c1C(=O)NCC(C)(C)C2` [Compound 20, 3,7,7-Trimethyl-1-(pyridin-2-yl)-5,6,7,8-tetrahydropyrazolo[4,3-c]azepin-4(1H)-one]: the “CDK2/cyclin A inhibitory activity, in words” value in data set [1] is “inactive”.
The same measure, in the same setting: as for `Cc1nn(-c2ncccc2C(F)(F)F)c2c1C(=O)C(Br)C(C)(C)C2` (stereo not shown) [Compound 47, 5-Bromo-3,6,6-trimethyl-1-(3-(trifluoromethyl)pyridin-2-yl)-6,7-dihydro-1H-indazol-4(5H)-one], the entry is “low activities”.
Regarding `Cc1nn(-c2nccs2)c2c1C(=O)CC(C)(C)C2Br` (stereo not shown) [Compound 53, 7-Bromo-3,6,6-trimethyl-1-(thiazol-2-yl)-6,7-dihydro-1H-indazol-4(5H)-one], the IC50 in data set [2] was found to be 61.9 nM; in data set [5], 2 nM. Further, the “better binding affinity for CDK2 compared to screening hit 3” value in data set [3] stood at 3 fold. The “antiproliferative activities” value in data set [4] was above 200 µM.
As for `Cc1nn(-c2ccccn2)c2c1NC(=O)CC(C)(C)C2` [Compound 19, 3,7,7-Trimethyl-1-(pyridin-2-yl)-4,6,7,8-tetrahydropyrazolo[4,3-b]azepin-5(1H)-one], in data set [1], the “CDK2/cyclin A inhibitory activity, in words” value was “inactive”.
In the case of `Cc1cccnc1-n1nc(C)c2c1CC(C)(C)C(Br)C2=O` (stereo not shown) [Compound 40, 5-Bromo-3,6,6-trimethyl-1-(3-methylpyridin-2-yl)-6,7-dihydro-1H-indazol-4(5H)-one], in data set [1], the “CDK2/cyclin A inhibitory activity, in words” value is “low activities”.
Take `Cc1nn(-c2ccccn2)c2c1C(=O)NCC(C)(C)C2Br` (stereo not shown) [Compound 21, 8-Bromo-3,7,7-trimethyl-1-(pyridin-2-yl)-5,6,7,8-tetrahydropyrazolo[4,3-c]azepin-4(1H)-one]: the “CDK2/cyclin A inhibitory activity, in words” value in data set [1] is given as “moderately active”.
As to `Cc1nn(-c2ccccn2)c2c1/C(=N/O)CC(C)(C)C2Br` (stereo not shown) [Compound 23, 7-Bromo-3,6,6-trimethyl-1-(pyridin-2-yl)-6,7-dihydro-1H-indazol-4(5H)-one Oxime], the “CDK2/cyclin A inhibitory activity, in words” value in data set [1] is “weak inhibitory activity”.
For the compound `COCCc1ccc(OCC(O)CNC(C)C)cc1` (stereo not shown) [Metoprolol, metoprolol, reference compound], in data set [6], the “Papp (A-B) (10^−6, cm/s)” value is 26.9 10^−6, cm/s and the “Papp (B-A) (10^−6, cm/s)” value is listed as 21.2 10^−6, cm/s.
For `Cc1nn(-c2ncccc2C(F)(F)F)c2c1C(=O)CC(C)(C)C2Br` (stereo not shown) [Compound 46, 7-Bromo-3,6,6-trimethyl-1-(3-(trifluoromethyl)pyridin-2-yl)-6,7-dihydro-1H-indazol-4(5H)-one], the “CDK2/cyclin A inhibitory activity, in words” value in data set [1] is given as “low activities”.
`Cc1nn(-c2ccccn2)c2c1C(=O)CC(C)(C)C2Br` (stereo not shown) [Compound 3, 7-Bromo-3,6,6-trimethyl-1-(pyridin-2-yl)-6,7-dihydro-1H-indazol-4(5H)-one] gave a concentration for half-maximal inhibition (IC50) in data set [2] of 86 nM. This compound also displayed a dissociation constant Kd in data set [3] of 15000 nM. In addition, the “antiproliferative activities” value in data set [4] was above 200 µM. In addition, in data set [7], the “activity against HSP90” value is “did not exhibit any activity”. Further, in data set [6], the “Papp (A-B) (10^−6, cm/s)” value is 20.1 10^−6, cm/s and the “Papp (B-A) (10^−6, cm/s)” value was 9.52 10^−6, cm/s.
With `Cc1nn(-c2ccccn2)c2c1C(=O)CC(C)C2Br` (stereo not drawn) [Compound 18b-cis, 7-Bromo-3,6-dimethyl-1-(pyridin-2-yl)-6,7-dihydro-1H-indazol-4(5H)-one], the “Inhibition of CDK complexes at 1 μM, in words” value in data set [8] is “did not exhibit significant inhibitory activity”.
